Consider eight molecules from ChEMBL document CHEMBL3132769, “Fragment growing to retain or alter the selectivity of anchored kinase hinge-binding fragments” (Medchemcomm, 2014).

Assay [1] has as its target MAP kinase p38 (Homo sapiens) (UniProt O15264+Q15759+Q16539+P53778). The assay can be described thus: Inhibition of human full length p38 beta2 expressed in Escherichia coli cell assessed as substrate phosphorylation using fluorescence-labelled peptides as substrate at 2 uM after 90 mins by microfluidic peptide phosphorylation assay.
For assay [2], the target named is RAC-alpha serine/threonine-protein kinase (Homo sapiens) (UniProt P31749). Conditions: 0.1 uM.
Description: Inhibition of human AKT1 catalytic domain expressed in baculovirus assessed as substrate phosphorylation using fluorescence-labelled peptides as substrate at 0.1 uM after 90 mins by microfluidic peptide phosphorylation assay
Assay [3] addresses Fibroblast growth factor receptor 4 (Homo sapiens) (UniProt P22455). As to conditions: 0.1 uM.
Description: Inhibition of human FGFR4 catalytic domain expressed in baculovirus assessed as substrate phosphorylation using fluorescence-labelled peptides as substrate at 0.1 uM after 90 mins by microfluidic peptide phosphorylation assay
Assay [4] has as its target Fibroblast growth factor receptor 3 (Homo sapiens) (UniProt P22607). Put plainly: Inhibition of human FGFR3 catalytic domain expressed in baculovirus assessed as substrate phosphorylation using fluorescence-labelled peptides as substrate at 0.2 uM after 90 mins by microfluidic peptide phosphorylation assay.
Assay [5] concerns the target Tyrosine-protein kinase Lck (Homo sapiens) (UniProt P06239). The assay can be described thus: Inhibition of human full length LCK expressed in baculovirus assessed as substrate phosphorylation using fluorescence-labelled peptides as substrate at 0.06 uM after 90 mins by microfluidic peptide phosphorylation assay.
Assay [6] addresses T1, Testis-specific serine/threonine-protein kinase 1 (Homo sapiens) (UniProt Q9BXA7).
T1 sequence (whole entry): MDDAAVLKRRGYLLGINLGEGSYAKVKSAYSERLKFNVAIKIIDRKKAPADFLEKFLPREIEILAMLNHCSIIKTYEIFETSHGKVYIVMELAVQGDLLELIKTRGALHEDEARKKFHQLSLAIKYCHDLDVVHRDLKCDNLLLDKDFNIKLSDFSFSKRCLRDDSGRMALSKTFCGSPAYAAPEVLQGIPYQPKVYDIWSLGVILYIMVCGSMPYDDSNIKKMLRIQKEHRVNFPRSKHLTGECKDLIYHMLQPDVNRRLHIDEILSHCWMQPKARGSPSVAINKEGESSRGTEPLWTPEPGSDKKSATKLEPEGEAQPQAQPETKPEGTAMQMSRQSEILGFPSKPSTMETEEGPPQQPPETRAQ
The assay can be described thus: Inhibition of human full length TSSK1 expressed in baculovirus assessed as substrate phosphorylation using fluorescence-labelled peptides as substrate at 95 uM after 90 mins by microfluidic peptide phosphorylation assay.

In assay [7] the test system is T2, Receptor-type tyrosine-protein kinase FLT3 (Homo sapiens), P36888 [D835Y].
T2 sequence (whole entry): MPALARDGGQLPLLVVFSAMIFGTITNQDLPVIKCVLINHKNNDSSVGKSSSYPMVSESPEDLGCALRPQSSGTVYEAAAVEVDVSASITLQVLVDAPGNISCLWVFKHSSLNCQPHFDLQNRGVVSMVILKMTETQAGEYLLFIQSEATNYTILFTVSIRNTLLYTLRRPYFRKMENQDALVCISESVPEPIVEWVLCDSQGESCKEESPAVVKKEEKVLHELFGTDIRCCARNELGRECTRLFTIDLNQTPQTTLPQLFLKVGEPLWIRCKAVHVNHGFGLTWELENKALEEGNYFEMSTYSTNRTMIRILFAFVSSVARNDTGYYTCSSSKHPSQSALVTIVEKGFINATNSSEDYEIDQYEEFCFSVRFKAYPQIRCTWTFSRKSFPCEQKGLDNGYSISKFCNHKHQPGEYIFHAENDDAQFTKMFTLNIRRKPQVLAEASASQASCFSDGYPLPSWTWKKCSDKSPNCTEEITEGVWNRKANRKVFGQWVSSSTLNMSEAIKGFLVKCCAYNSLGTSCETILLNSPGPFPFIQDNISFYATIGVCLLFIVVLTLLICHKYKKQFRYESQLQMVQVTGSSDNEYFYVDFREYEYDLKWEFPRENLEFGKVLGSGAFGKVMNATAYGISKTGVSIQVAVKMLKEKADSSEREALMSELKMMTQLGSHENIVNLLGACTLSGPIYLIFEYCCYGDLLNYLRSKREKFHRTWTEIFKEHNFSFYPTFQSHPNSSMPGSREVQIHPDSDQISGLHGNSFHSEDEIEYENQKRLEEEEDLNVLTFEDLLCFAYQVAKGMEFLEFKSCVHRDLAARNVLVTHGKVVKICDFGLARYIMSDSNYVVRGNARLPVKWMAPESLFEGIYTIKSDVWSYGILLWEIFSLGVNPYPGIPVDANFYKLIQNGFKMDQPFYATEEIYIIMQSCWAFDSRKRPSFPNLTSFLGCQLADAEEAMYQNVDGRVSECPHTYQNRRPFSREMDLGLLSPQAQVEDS
Put plainly: Inhibition of human FLT3 D835Y mutant catalytic domain expressed in baculovirus assessed as substrate phosphorylation using fluorescence-labelled peptides as substrate at […] after 90 mins by microfluidic peptide phosphorylation assay.

Assay [8] deals with T3, Mitogen-activated protein kinase 12 (Homo sapiens) (UniProt P53778).
T3 sequence (whole entry): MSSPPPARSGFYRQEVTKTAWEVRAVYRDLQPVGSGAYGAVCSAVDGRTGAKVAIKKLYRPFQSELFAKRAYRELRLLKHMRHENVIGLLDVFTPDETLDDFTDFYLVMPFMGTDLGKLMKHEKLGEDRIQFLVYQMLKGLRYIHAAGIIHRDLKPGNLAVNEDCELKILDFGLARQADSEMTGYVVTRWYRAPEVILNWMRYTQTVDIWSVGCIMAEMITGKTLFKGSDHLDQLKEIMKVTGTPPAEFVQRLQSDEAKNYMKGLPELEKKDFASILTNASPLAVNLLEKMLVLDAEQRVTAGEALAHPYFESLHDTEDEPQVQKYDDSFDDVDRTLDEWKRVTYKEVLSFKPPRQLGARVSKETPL
Put plainly: Inhibition of human full length p38 gamma expressed in Escherichia coli cell assessed as substrate phosphorylation using fluorescence-labelled peptides as substrate at 420 uM after 90 mins by microfluidic peptide phosphorylation assay.

In assay [9] the target is Protein kinase C alpha type (Homo sapiens) (UniProt P17252). The assay can be described thus: Inhibition of human truncated PKC alpha expressed in baculovirus assessed as substrate phosphorylation using fluorescence-labelled peptides as substrate at 1000 uM after 90 mins by microfluidic peptide phosphorylation assay.

Each structure is given as a SMILES string.

Chain of Fibroblast growth factor receptor 3 (Homo sapiens) (P22607 23-806 limits assumed): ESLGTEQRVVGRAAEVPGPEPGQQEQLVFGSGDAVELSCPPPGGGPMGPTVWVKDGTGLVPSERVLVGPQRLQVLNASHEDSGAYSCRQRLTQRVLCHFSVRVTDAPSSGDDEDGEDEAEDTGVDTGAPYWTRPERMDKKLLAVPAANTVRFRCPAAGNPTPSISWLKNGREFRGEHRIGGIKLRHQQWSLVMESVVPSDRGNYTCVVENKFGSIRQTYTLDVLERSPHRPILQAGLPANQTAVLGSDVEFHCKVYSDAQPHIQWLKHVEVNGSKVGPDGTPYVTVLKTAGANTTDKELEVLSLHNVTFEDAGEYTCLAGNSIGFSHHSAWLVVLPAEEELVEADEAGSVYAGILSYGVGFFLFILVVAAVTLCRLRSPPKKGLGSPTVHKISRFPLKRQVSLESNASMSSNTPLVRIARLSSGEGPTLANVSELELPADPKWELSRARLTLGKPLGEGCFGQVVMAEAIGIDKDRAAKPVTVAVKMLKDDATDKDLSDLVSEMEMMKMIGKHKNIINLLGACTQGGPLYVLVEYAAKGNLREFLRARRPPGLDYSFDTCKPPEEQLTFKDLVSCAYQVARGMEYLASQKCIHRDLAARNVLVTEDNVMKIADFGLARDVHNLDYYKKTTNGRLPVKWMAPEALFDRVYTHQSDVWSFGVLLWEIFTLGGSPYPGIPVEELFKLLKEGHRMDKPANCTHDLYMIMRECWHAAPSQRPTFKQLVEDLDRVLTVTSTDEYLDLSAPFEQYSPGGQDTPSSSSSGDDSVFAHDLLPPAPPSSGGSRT
Chain of Tyrosine-protein kinase Lck (Homo sapiens) (P06239 2-509 limits assumed): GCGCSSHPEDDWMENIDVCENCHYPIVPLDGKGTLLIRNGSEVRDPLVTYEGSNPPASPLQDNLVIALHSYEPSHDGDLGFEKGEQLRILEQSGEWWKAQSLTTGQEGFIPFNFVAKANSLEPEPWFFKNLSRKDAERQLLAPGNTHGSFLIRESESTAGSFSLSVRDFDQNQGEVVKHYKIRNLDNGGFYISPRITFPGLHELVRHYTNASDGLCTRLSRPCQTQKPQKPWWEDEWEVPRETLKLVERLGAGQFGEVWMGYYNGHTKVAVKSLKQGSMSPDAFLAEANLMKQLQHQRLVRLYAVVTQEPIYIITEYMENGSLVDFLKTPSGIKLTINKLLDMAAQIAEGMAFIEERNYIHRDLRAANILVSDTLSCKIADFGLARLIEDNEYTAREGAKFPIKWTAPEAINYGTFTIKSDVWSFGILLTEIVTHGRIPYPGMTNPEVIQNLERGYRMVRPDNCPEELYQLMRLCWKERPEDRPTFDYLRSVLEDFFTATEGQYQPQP
Chain of Fibroblast growth factor receptor 4 (Homo sapiens) (P22455 22-802 limits assumed): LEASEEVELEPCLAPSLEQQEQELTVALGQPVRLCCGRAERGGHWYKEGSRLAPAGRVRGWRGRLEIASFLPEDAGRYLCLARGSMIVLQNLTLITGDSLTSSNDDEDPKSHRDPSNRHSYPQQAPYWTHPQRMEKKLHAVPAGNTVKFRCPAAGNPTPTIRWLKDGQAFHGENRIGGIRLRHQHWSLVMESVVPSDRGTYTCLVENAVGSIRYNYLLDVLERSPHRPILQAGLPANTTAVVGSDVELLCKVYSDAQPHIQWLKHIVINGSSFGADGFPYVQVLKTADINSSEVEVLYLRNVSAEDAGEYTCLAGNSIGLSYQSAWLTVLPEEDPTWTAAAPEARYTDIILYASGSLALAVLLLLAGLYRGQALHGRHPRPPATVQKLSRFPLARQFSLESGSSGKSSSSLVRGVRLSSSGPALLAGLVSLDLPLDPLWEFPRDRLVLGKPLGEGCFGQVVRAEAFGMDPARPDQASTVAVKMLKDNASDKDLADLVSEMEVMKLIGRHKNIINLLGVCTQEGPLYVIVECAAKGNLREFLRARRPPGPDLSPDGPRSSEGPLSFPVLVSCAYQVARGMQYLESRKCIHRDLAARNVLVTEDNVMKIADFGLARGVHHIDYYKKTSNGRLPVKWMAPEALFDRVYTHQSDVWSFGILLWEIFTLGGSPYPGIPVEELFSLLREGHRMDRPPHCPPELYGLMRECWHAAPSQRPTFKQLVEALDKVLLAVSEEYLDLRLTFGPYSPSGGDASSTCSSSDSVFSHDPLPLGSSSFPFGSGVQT
Chain of RAC-alpha serine/threonine-protein kinase (Homo sapiens) (P31749 whole entry): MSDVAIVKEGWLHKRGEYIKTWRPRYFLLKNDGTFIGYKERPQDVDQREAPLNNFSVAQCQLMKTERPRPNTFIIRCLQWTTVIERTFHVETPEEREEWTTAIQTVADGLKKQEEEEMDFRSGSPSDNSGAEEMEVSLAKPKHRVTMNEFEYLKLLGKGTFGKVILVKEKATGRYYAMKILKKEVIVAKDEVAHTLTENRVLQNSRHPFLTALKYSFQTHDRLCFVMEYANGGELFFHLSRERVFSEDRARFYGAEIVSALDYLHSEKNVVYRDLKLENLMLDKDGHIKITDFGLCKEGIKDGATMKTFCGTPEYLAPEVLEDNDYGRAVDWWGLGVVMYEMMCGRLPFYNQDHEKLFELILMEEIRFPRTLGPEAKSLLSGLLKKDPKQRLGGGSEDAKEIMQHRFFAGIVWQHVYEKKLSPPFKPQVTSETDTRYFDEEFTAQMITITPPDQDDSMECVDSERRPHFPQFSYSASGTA
Chain of MAP kinase p38 (Homo sapiens) (O15264 whole entry, looked up, one chain of several): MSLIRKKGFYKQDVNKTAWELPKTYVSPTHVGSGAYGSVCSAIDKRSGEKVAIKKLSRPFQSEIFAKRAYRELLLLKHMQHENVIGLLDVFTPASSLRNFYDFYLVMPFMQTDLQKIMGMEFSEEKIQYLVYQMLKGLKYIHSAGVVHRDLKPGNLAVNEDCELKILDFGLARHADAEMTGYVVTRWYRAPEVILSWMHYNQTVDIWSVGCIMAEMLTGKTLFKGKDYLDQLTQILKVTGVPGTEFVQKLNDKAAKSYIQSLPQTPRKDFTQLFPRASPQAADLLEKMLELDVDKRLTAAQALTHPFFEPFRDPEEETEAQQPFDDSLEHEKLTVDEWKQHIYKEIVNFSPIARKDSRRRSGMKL
Chain of MAP kinase p38 (Homo sapiens) (Q15759 whole entry, looked up, one chain of several): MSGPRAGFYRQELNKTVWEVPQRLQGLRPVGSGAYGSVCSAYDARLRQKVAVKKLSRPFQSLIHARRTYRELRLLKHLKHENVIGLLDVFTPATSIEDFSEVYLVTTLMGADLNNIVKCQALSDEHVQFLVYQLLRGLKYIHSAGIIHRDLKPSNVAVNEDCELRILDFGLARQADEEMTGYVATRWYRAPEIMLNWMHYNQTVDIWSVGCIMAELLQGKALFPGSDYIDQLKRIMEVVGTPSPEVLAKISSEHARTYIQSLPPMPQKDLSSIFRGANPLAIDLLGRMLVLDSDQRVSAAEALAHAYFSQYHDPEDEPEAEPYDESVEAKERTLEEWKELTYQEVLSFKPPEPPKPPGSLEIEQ
Chain of MAP kinase p38 (Homo sapiens) (Q16539 whole entry, looked up, one chain of several): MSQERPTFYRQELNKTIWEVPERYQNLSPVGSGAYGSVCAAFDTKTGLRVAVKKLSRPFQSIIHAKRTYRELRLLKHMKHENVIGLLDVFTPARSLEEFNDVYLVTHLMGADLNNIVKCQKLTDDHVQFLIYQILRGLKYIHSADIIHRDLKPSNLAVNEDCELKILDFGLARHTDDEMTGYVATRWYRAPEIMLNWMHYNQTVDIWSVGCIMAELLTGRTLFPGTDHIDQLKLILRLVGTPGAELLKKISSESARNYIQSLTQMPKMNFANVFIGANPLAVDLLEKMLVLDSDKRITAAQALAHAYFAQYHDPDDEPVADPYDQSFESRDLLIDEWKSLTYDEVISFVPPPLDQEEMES

In the case of `NC1CCN(c2ncnc3[nH]ccc23)CC1`, the inhibition (usually the drop in the measured response relative to a control, in per cent) in assay [1] is 5.5%.

On to `C[C@H](CN(C)C)Oc1nc(Nc2cc3cccc(Cl)c3cn2)cnc1C#N`, for which the inhibition in assay [2] and in assay [3] was 0% each time. Turning to `Clc1ccc(C2(c3ccc(-c4ncnc5[nH]cnc45)cc3)CCNCC2)cc1`, the inhibition in assay [4] was determined as 0%.

Regarding `NC1(Cc2ccc(Cl)cc2)CCN(c2ncnc3[nH]ccc23)CC1`, the inhibition in assay [5] amounted to 0%. In the case of `NCCc1ccc(-c2ncnc3[nH]cnc23)cc1`, the inhibition in assay [6] worked out at 89%. Consider `COC(=O)c1cnc(Nc2cnc(C#N)cn2)cc1NCC1CCNCC1`, for which the inhibition in assay [7] was 63%. For `c1nc(N2CCOCC2)c2nc[nH]c2n1`, the inhibition in assay [8] worked out at 41.5%. Consider `c1cnc2[nH]ccc2c1`, for which, in assay [9], the inhibition was 43%.
